Data taken from ChEMBL document CHEMBL1137022, “The Ssk1p response regulator and Chk1p histidine kinase mutants of Candida albicans are hypersensitive to fluconazole and voriconazole” (Antimicrob Agents Chemother, 2007).
Values after ≈ are worked out from the molar mass of the structure shown. Active and inactive are the calls of the source. The calls are words filed in the database; no cut-off is given here.

Key:
Candida albicans [1] = experiment: Fungicidal activity against wild type Candida albicans CAF2-1 assessed as reduction in cell viability at 4 times MIC of SSK21/CHK21 after 24 hrs; assay type: functional, organism-based
Candida albicans [2] = experiment: Fungistatic activity against wild type Candida albicans CAF2-1 after 24 to 48 hrs by broth microdilution assay; assay type: functional
Candida albicans [3] = experiment: Fungistatic activity against Candida albicans SSK21 after 24 to 48 hrs by broth microdilution assay; assay type: functional
Candida albicans [4] = experiment: Fungistatic activity against Candida albicans SSK23 after 24 to 48 hrs by broth microdilution assay; assay type: functional
Candida albicans [5] = experiment: Fungistatic activity against Candida albicans CHK21 after 24 to 48 hrs by broth microdilution assay; assay type: functional
Candida albicans [6] = experiment: Fungistatic activity against Candida albicans CHK23 after 24 to 48 hrs by broth microdilution assay; assay type: functional
Candida albicans [7] = experiment: Fungicidal activity against Candida albicans SSK21 assessed as reduction in cell viability at 4 times MIC after 24 hrs; assay type: functional, organism-based
Candida albicans [8] = experiment: Fungicidal activity against Candida albicans SSK23 assessed as reduction in cell viability at 4 times MIC of SSK21/CHK21 after 24 hrs; assay type: functional, organism-based
Candida albicans [9] = experiment: Fungicidal activity against Candida albicans CHK21 assessed as reduction in cell viability at 4 times MIC after 24 hrs; assay type: functional, organism-based
Candida albicans [10] = experiment: Fungicidal activity against Candida albicans CHK23 assessed as reduction in cell viability at 4 times MIC of SSK21/CHK21 after 24 hrs; assay type: functional, organism-based
Candida albicans [11] = experiment: Fungicidal activity against wild type Candida albicans CAF2-1 assessed as reduction in cell viability at MIC of SSK21/CHK21 after 24 hrs; assay type: functional, organism-based
Candida albicans [12] = experiment: Fungicidal activity against Candida albicans SSK21 assessed as reduction in cell viability at MIC after 24 hrs; assay type: functional, organism-based
Candida albicans [13] = experiment: Fungicidal activity against Candida albicans SSK23 assessed as reduction in cell viability at MIC of SSK21/CHK21 after 24 hrs; assay type: functional, organism-based
Candida albicans [14] = experiment: Fungicidal activity against Candida albicans CHK21 assessed as reduction in cell viability at MIC after 24 hrs; assay type: functional, organism-based
Candida albicans [15] = experiment: Fungicidal activity against Candida albicans CHK23 assessed as reduction in cell viability at MIC of SSK21/CHK21 after 24 hrs; assay type: functional, organism-based
Candida albicans [16] = experiment: Ratio of MIC for Candida albicans CHK21 to MIC for Candida albicans SSK21; assay type: functional
Candida albicans [17] = experiment: Fungistatic activity against Candida albicans SKN7 mutant after 24 to 48 hrs by broth microdilution assay; assay type: functional, organism-based
Candida albicans [18] = experiment: Fungistatic activity against Candida albicans SLN1 HK mutant after 24 to 48 hrs by broth microdilution assay; assay type: functional, organism-based
Candida albicans [19] = experiment: Drug uptake in Candida albicans SSK21 at 3.6 ng/ml after 1 hrs by liquid scintillation counting relative to wild type Candida albicans CAF2-1; assay type: ADME, organism-based

OC(Cn1cncn1)(Cn1cncn1)c1ccc(F)cc1F [FLUCONAZOLE]
Activity (Candida albicans [1]): Active | MIC (Candida albicans [2]): 16 µg/mL (≈ 52.2 µM) | MIC (Candida albicans [3]): 0.032 µg/mL (≈ 0.104 µM) | MIC (Candida albicans [4]): 0.25 µg/mL (≈ 0.816 µM) | MIC (Candida albicans [5]): 1 µg/mL (≈ 3.27 µM) | MIC (Candida albicans [6]): 16 µg/mL (≈ 52.2 µM) | Activity (Candida albicans [7]): Active | Activity (Candida albicans [8]): Active | Activity (Candida albicans [9]): Active | Activity (Candida albicans [10]): Active | Activity (Candida albicans [11]): inactive | Activity (Candida albicans [12]): inactive | Activity (Candida albicans [13]): inactive | Activity (Candida albicans [14]): inactive | Activity (Candida albicans [15]): inactive | Ratio (Candida albicans [16]): 30

CC[C@H](C)C[C@H](C)CCCCCCCCC(=O)N[C@H]1C[C@@H](O)[C@@H](NCCN)NC(=O)[C@@H]2[C@@H](O)CCN2C(=O)[C@H]([C@H](O)CCN)NC(=O)[C@H]([C@H](O)[C@@H](O)c2ccc(O)cc2)NC(=O)[C@@H]2C[C@@H](O)CN2C(=O)[C@H]([C@@H](C)O)NC1=O
Activity (Candida albicans [3]): Active | Activity (Candida albicans [5]): Active

C[C@@H]1[C@H](O)[C@@H](C)/C=C/C=C/C=C/C=C/C=C/C=C/C=C/[C@H](O[C@@H]2O[C@H](C)[C@@H](O)[C@H](N)[C@@H]2O)C[C@@H]2O[C@](O)(C[C@@H](O)C[C@@H](O)[C@H](O)CC[C@@H](O)C[C@@H](O)CC(=O)O[C@H]1C)C[C@H](O)[C@H]2C(=O)O
Activity (Candida albicans [3]): Active | Activity (Candida albicans [5]): Active

C[C@@H](c1ncncc1F)[C@](O)(Cn1cncn1)c1ccc(F)cc1F [VORICONAZOLE]
Activity (Candida albicans [1]): Active | MIC (Candida albicans [2]): 0.5 µg/mL (≈ 1.43 µM) | MIC (Candida albicans [3]): 0.008 µg/mL (≈ 0.0229 µM) | MIC (Candida albicans [4]): 0.064 µg/mL (≈ 0.183 µM) | MIC (Candida albicans [5]): 0.015 µg/mL (≈ 0.0429 µM) | MIC (Candida albicans [6]): 1 µg/mL (≈ 2.86 µM) | Activity (Candida albicans [17]): Active | Activity (Candida albicans [18]): Active | Activity (Candida albicans [7]): Active | Activity (Candida albicans [8]): Active | Activity (Candida albicans [9]): Active | Activity (Candida albicans [10]): Active | Activity (Candida albicans [11]): inactive | Activity (Candida albicans [12]): inactive | Activity (Candida albicans [13]): inactive | Activity (Candida albicans [14]): inactive | Activity (Candida albicans [15]): inactive

CC(=O)N1CCN(c2ccc(OCC3COC(Cn4ccnc4)(c4ccc(Cl)cc4Cl)O3)cc2)CC1 (configuration not stated)
Activity (Candida albicans [3]): Active | Activity (Candida albicans [5]): Active

[3H]OC(Cn1cncn1)(Cn1cncn1)c1ccc(F)cc1F [[3H]FLUCONAZOLE]
fold change (FC) (Candida albicans [19]): 2

Clc1ccc(COC(Cn2ccnc2)c2ccc(Cl)cc2Cl)c(Cl)c1 (configuration not stated)
Activity (Candida albicans [3]): Active | Activity (Candida albicans [5]): Active
